Data: ChEMBL document CHEMBL1909046, “DrugMatrix in vitro pharmacology data”

Experiments:
[1] = DRUGMATRIX: Sodium/nucleoside co-transporter radioligand binding (ligand: nitrobenzylthioinosine); assay type: cell membranes, Cavia porcellus, Dunkin-Hartley, Cerebral cortex, Membrane; settings: Not Active = under 50% inhibition at 10 µM
[2] = molecular target: T1, Alpha-1B adrenergic receptor (Rattus norvegicus, UniProt P15823); test: DRUGMATRIX: Alpha-1B adrenergic receptor radioligand binding (ligand: prazosin); assay type: cell membranes, Wistar, Liver, Membrane; settings: Not Active = under 50% inhibition at 10 µM; for Ki: read-out: Ki
T1 sequence (P15823 whole entry): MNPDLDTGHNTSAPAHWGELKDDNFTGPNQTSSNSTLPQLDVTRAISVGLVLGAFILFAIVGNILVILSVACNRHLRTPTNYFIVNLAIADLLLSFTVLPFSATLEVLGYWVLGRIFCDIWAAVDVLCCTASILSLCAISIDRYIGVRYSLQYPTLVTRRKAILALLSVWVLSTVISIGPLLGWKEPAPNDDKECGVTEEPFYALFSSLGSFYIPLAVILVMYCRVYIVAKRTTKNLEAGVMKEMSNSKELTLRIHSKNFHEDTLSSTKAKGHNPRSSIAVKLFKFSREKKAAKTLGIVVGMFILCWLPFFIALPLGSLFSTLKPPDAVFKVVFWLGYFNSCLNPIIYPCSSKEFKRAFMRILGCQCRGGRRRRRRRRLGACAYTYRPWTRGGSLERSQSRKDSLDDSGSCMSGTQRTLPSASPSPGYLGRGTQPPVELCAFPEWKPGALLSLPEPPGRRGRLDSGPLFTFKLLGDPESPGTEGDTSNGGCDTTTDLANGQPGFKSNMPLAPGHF

[3] = molecular target: T2, Alpha-2A adrenergic receptor (Homo sapiens, UniProt P08913); assay type: cell membranes, Sf9, Membrane; settings: for Ki: read-out: Ki; for all read-outs here: in other assays of this panel Not Active means under 50% inhibition at 10 µM
T2 sequence (P08913 whole entry): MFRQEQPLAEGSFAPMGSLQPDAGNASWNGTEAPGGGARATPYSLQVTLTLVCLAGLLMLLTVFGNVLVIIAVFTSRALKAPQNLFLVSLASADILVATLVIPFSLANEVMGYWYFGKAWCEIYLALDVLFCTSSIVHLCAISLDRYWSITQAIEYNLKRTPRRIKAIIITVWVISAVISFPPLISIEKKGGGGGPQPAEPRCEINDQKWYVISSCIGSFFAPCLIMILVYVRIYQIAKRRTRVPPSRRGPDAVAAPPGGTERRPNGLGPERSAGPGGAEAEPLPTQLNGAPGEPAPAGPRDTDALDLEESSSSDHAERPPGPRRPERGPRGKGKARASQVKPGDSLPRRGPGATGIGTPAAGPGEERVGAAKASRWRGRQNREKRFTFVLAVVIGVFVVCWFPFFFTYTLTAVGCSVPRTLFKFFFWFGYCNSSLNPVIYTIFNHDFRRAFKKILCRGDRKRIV

[4] = molecular target: Sigma non-opioid intracellular receptor 1 (Homo sapiens, UniProt Q99720); test: DRUGMATRIX: Sigma1 radioligand binding (ligand: [3H] Haloperidol); assay type: cell membranes, Jurkat, Membrane; settings: Not Active = under 50% inhibition at 10 µM; for Ki: read-out: Ki
Sigma non-opioid intracellular receptor 1, sequence (Q99720 whole entry): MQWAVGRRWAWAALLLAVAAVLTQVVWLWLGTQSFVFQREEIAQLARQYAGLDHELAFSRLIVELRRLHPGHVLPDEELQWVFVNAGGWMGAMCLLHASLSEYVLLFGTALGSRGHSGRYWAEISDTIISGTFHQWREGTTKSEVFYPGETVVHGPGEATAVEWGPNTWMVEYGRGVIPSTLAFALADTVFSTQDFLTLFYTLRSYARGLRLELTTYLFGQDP

[5] = DRUGMATRIX: Leukotriene, BLT (LTB4) radioligand binding (ligand: [3H]LTB4); assay type: cell membranes, Membrane; settings: u-937; Not Active = under 50% inhibition at 10 µM
Cathepsin G = molecular target: T3, Cathepsin G (Homo sapiens, UniProt P08311); assay type: tissue-based; settings: neutrophil;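 note: inhibition of Cathepsin G enzyme activity, tested on an AMC-conjugated peptide substrate; in other assays of this panel Not Active means under 50% inhibition at 10 µM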
T3 sequence (P08311 whole entry): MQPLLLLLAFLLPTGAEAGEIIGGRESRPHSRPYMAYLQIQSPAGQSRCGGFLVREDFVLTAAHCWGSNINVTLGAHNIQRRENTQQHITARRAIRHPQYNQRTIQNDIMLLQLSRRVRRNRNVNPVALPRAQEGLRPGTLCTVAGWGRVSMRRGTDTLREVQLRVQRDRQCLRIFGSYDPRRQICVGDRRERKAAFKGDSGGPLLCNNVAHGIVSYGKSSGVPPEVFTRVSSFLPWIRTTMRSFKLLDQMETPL

SMILES	IC50 [1]	Ki [1]	IC50 [2]	IC50 ([3]; sf9)	IC50 ([4]; jurkat)	IC50 [5]	Ki [5]	IC50 (Cathepsin G)	IC50 ([2]; read-out: IC50)	Ki [2]	IC50 ([3]; read-out: IC50)	Ki [3]	IC50 ([4]; read-out: IC50)	Ki [4]
CCC(=O)O[C@]1(C(=O)CCl)[C@@H](C)C[C@H]2[C@@H]3CCC4=CC(=O)C=C[C@]4(C)[C@@]3(F)[C@@H](O)C[C@@]21C [CLOBETASOL PROPIONATE]	Not Active	Not Active	Not Active	Not Active	Not Active	Not Active	Not Active	Not Active	–	–	–	–	–	–
O=C1CN=C(c2ccccc2Cl)c2cc([N+](=O)[O-])ccc2N1 [CLONAZEPAM]	Not Active	Not Active	Not Active	Not Active	Not Active	Not Active	Not Active	Not Active	–	–	–	–	–	–
Nc1ccn([C@@H]2O[C@H](CO)[C@@H](O)[C@@H]2O)c(=O)n1 [CYTARABINE]	Not Active	Not Active	Not Active	Not Active	Not Active	Not Active	Not Active	Not Active	–	–	–	–	–	–
C[C@@H]1C[C@H]2[C@@H]3CCC4=CC(=O)C=C[C@]4(C)[C@@]3(F)[C@@H](O)C[C@]2(C)[C@H]1C(=O)CO [DESOXIMETASONE]	Not Active	Not Active	Not Active	Not Active	Not Active	Not Active	Not Active	Not Active	–	–	–	–	–	–
C[C@@H]1C[C@H]2[C@@H]3CCC4=CC(=O)C=C[C@]4(C)[C@@]3(F)[C@@H](O)C[C@]2(C)[C@@]1(O)C(=O)CO [DEXAMETHASONE]	Not Active	Not Active	Not Active	Not Active	Not Active	Not Active	Not Active	Not Active	–	–	–	–	–	–
CN(C)CC[C@@H](c1ccc(Cl)cc1)c1ccccn1 [DEXCHLORPHENIRAMINE]	Not Active	Not Active	–	–	–	Not Active	Not Active	Not Active	15600 nM	8610 nM	20300 nM	7620 nM	1660 nM	697 nM
C[C@@H]1CC[C@@]2(OC1)O[C@H]1[C@@H](O)[C@H]3[C@@H]4CC[C@H]5C[C@@H](O[C@@H]6O[C@H](CO)[C@H](O[C@@H]7O[C@H](CO)C(O)[C@H](O[C@@H]8OC[C@@H](O)[C@H](O)[C@H]8O)[C@H]7O[C@@H]7O[C@H](CO)[C@H](O)[C@H](O[C@@H]8O[C@H](CO)[C@@H](O)[C@H](O)[C@H]8O)[C@H]7O)[C@H](O)[C@H]6O)[C@H](O)C[C@]5(C)[C@H]4CC[C@]3(C)[C@H]1[C@@H]2C (some centres undefined) [DIGITONIN]	Not Active	Not Active	Not Active	Not Active	Not Active	Not Active	Not Active	Not Active	–	–	–	–	–	–
OC(CCCN1CCCCC1)(c1ccccc1)c1ccccc1 [DIPHENIDOL]	Not Active	Not Active	–	Not Active	–	Not Active	Not Active	Not Active	4760 nM	2640 nM	–	–	256 nM	108 nM
C[C@H]1O[C@@H](n2cc(F)c(=O)[nH]c2=O)[C@H](O)[C@@H]1O [DOXIFLURIDINE]	Not Active	Not Active	Not Active	Not Active	Not Active	Not Active	Not Active	Not Active	–	–	–	–	–	–
Cn1c(=O)c2c(ncn2CC(O)CO)n(C)c1=O (centres undefined) [DYPHYLLINE]	Not Active	Not Active	Not Active	Not Active	Not Active	Not Active	Not Active	Not Active	–	–	–	–	–	–
CC[C@H]1CN2CCc3cc(OC)c(OC)cc3[C@@H]2C[C@@H]1C[C@H]1NCCc2cc(OC)c(OC)cc21 [EMETINE]	Not Active	Not Active	–	–	Not Active	Not Active	Not Active	Not Active	1930 nM	1070 nM	38 nM	14 nM	–	–
C[C@@H](CO)NC(=O)[C@@H]1C=C2c3cccc4[nH]cc(c34)C[C@H]2N(C)C1 [ERGONOVINE]	Not Active	Not Active	Not Active	–	Not Active	Not Active	Not Active	Not Active	–	–	1680 nM	630 nM	–	–
COC(=O)CCc1ccc(OCC(O)CNC(C)C)cc1 (centres undefined) [ESMOLOL]	Not Active	Not Active	Not Active	Not Active	Not Active	Not Active	Not Active	Not Active	–	–	–	–	–	–
CCC1(C)CC(=O)NC1=O (centres undefined) [ETHOSUXIMIDE]	Not Active	Not Active	Not Active	Not Active	Not Active	Not Active	Not Active	Not Active	–	–	–	–	–	–
C#C[C@]1(OC(C)=O)CC[C@H]2[C@@H]3CCC4=C[C@@H](OC(C)=O)CC[C@@H]4[C@H]3CC[C@@]21C [ETHYNODIOL DIACETATE]	Not Active	Not Active	Not Active	Not Active	Not Active	Not Active	Not Active	Not Active	–	–	–	–	–	–
COc1cc([C@@H]2c3cc4c(cc3[C@@H](O[C@@H]3O[C@@H]5CO[C@@H](C)O[C@H]5[C@H](O)[C@H]3O)[C@H]3COC(=O)[C@H]23)OCO4)cc(OC)c1O [ETOPOSIDE]	Not Active	Not Active	Not Active	Not Active	Not Active	Not Active	Not Active	Not Active	–	–	–	–	–	–
C=CCc1ccc(O)c(OC)c1 [EUGENOL]	Not Active	Not Active	Not Active	Not Active	Not Active	Not Active	Not Active	Not Active	–	–	–	–	–	–
CC(C(=O)O)c1cccc(Oc2ccccc2)c1 (centres undefined) [FENOPROFEN]	Not Active	Not Active	Not Active	Not Active	Not Active	Not Active	Not Active	Not Active	–	–	–	–	–	–
CC(C)(C)NC(=O)[C@H]1CC[C@H]2[C@@H]3CC[C@H]4NC(=O)C=C[C@]4(C)[C@H]3CC[C@]12C [FINASTERIDE]	Not Active	Not Active	Not Active	Not Active	Not Active	Not Active	Not Active	Not Active	–	–	–	–	–	–
COc1ccc2c3c1O[C@H]1C[C@@H](O)C=C[C@@]31CCN(C)C2 [GALANTAMINE]	Not Active	Not Active	Not Active	Not Active	Not Active	Not Active	Not Active	Not Active	–	–	–	–	–	–
Nc1ccn([C@@H]2O[C@H](CO)[C@@H](O)C2(F)F)c(=O)n1 [GEMCITABINE]	Not Active	Not Active	Not Active	Not Active	Not Active	Not Active	Not Active	Not Active	–	–	–	–	–	–
CC(C)=CCC/C(C)=C/CO [GERANIOL]	Not Active	Not Active	Not Active	Not Active	Not Active	Not Active	Not Active	Not Active	–	–	–	–	–	–
